Patent publication US9827181B2, “Method and pharmaceutical composition for hair growth” (INDUSTRIAL TECHNOLOGY RESEARCH INSTITUTE, priority 2013, dated 2017)
Entries after “also recorded” stand apart in the source; their conditions may differ.

How the values were obtained:
[1] = tested on: hair follicles on the dorsal skin of female C57BL/6 mice; experiment: mouse model of hair regeneration (dorsal skin, refractory telogen phase); conditions: high dosage level (2000 μM) on dorsal skin, once a day for 10 days, negative = no hair growth;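 further: mice roughly 8 weeks old, negative control skin section treated with 100% alcohol, regrowth checked daily with day counted from start of dosing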
Procedure: The mouse model adopts female C57BL/6 mice (about 8 weeks).
In the present disclosure, the sample solution is applied on the dorsal skin, where the hair follicle stays at the refractory telogen phase, to observe whether the peptides are beneficial to hair growth.
The sample solution is applied on each of the sections for 10 days. The administration of the sample solution includes, but not limited to, the injection (50 μl) and the coating (10 μl). In addition, the dosage of the sample solution includes, but not limited to, the high dosage level (2000 μM) and the low dosage level (200 μM).
In order to avoid experimental error due to manual operation, a positive control and a negative control are predetermined on two sections. […] The second section 2 is coated with high dosage level of HGP or the pharmaceutical composition for 10 days (once a day). The third section 3 is coated with low dosage level of HGP or the pharmaceutical composition for 10 days (once a day). The fourth section 4 is coated with 100% alcohol for 10 days (once a day). The fourth section 4 is regarded as the negative control. The fifth section 5 is continuously injected with the high dosage of HGP or pharmaceutical composition for 10 days (once a day). The sixth section 6 is continuously injected with the low dosage of HGP or pharmaceutical composition for 10 days (once a day). The HGP prepared for the sections is the same amino acid sequence.
HGP or pharmaceutical composition having the same as referred at the table 1 is implemented through the above-mentioned process and then the hair regeneration condition is recorded everyday. Since the period of the refractory telogen phase is 28 days, it is regards as a negative result that no hair regeneration is observed at thirtieth day after the administration of the sample solution.
The number x of the hair growth in the table 3 means that the hair regeneration condition is observed at the x'th day after the high dosage level is administrated on the dorsal skin. For instance, the number (x=5) means that the hair growth is observed at fifth day. Furthermore, the symbol NA represents the need for further analysis. […] In addition, the “negative” represents no hair growth by using the peptide in accordance with the experimental number.

[2] = tested on: Wnt3a in the hair follicle stem cells; experiment: immuno-fluorescent staining, Wnt3a marker; format: in vivo, mouse; conditions: FIG. 4
Procedure: (§1) After the female C57BL/6 mice are injected with the SEQ ID No. 1 peptide, the immuno-fluorescent staining with the marker CK15 is performed so as to observe whether the genes, such as Wnt3a, Wnt/β-catenin are activated or not.
(§2) Thus, the SEQ ID No: 1 peptide enables activation of the regeneration of the hair follicle stem cells. In order to realize how the SEQ ID No: 1 peptide activates the regeneration of the hair follicle stem cells, the immuno-fluorescent staining in accordance with Win/β-catenin signal transduction pathway is performed. […] Since β-catenin is a downstream gene of Wnt signal transduction pathway, activating β-catenin allows the initiation of a Wnt signal transduction pathway so as to regenerate the hair follicle stem cell. […] In other words, the SEQ ID No: 1 peptide may activate the Wnt/β-catenin signal transduction pathway to activate the regeneration of the hair follicle stem cells.

[3] = tested on: marker CK15 of the hair follicle stem cells; experiment: immuno-fluorescent staining, marker CK15; format: in vivo, mouse; conditions: mice injected with the peptide, FIG. 3
Procedure: as §1, §2

[4] = tested on: β-catenin activity in HaCaT Keratinocytes; experiment: TCF reporter assay in HaCaT Keratinocyte cell line; format: cell-based; conditions: HaCaT cells, 200 μM peptide, TOP/FOP reporter, FIG. 7; listed as SEQ ID No: 1
Procedure: (§3) FIG. 7 illustrates a schematic view of a TCF reporter assay in HaCaT Keratinocyte cell line. TOP represents that the reporter gene has a functional binding site where β-catenin is bound. […] CTL represents that HaCaT Keratinocytes are not treated with any stimulant. iPept-1 means that HaCaT Keratinocytes are treated with the SEQ ID No: 1 peptide.
(§4) In the present disclosure, Human Hair Follicular Keratinocytes (HHFK), HaCaT Keratinocyte and macrophages are used as cell models for realizing the mechanism. Reporter assay and QRT-PCR are used as bioactivity assays to identify how the SEQ ID No. 1 peptide improves hair growth.

[5] = tested on: β-catenin activity in Human Hair Follicular Keratinocytes (HHFK); experiment: TCF reporter assay in HHFK cell line; format: cell-based; conditions: HHFK cells, 200 μM peptide, TOP/FOP reporter, FIG. 6; listed as SEQ ID No: 1
Procedure: as §3, with “6” for “7”, “Human Hair Follicular Keratinocytes (HHFK)” for “HaCaT Keratinocyte”, “HHFK cell line is” for “HaCaT Keratinocytes are”
as §4

[6] = tested on: β-catenin in the hair follicle stem cells; experiment: immuno-fluorescent staining, β-catenin marker; format: in vivo, mouse; conditions: FIG. 5, listed as SEQ ID No: 1
Procedure: as §1, §2

[7] = tested on: Wnt7b gene expression in macrophages; experiment: RT-PCR analysis in macrophages, Wnt7b; format: cell-based, human; conditions: 200 μM peptide for 8 hours
Procedure: (§5) The SEQ ID No. 1 peptide is treated in HHFK, HaCaT and human macrophage to study the hair growth mechanism induced by the SEQ ID No. 1 peptide. In the present disclosure, Human Hair Follicular Keratinocytes (HHFK), HaCaT Keratinocyte and macrophages are used as cell models for realizing the mechanism. Reporter assay and QRT-PCR are used as bioactivity assays to identify how the SEQ ID No. 1 peptide improves hair growth. After macrophages are treated with the 200 μM SEQ ID No: 1 peptide (iPept-1) for 8 hours, gene regulation of Wnt family (Wnt1, Wnt2, Wnt3a, Wnt4, Wnt6, Wnt7a, Wnt7b, Wnt10a, Wnt10b, Wnt16) are detected by RT-PCR and QRT-PCR tests as shown in FIGS. 8 and 9. It is observed that the transcription level of Wnt16 and Wnt7b increases in accordance with the treatment of iPept-1.

[8] = tested on: Wnt16 gene expression in macrophages; experiment: RT-PCR / QRT-PCR analysis in macrophages, Wnt16; format: cell-based, human; conditions: 200 μM peptide for 8 hours
Procedure: as §5

Row | Substance | Number x (hair regeneration observed at the x'th day) [1] | other results
1 | FGSFGLITHTI (a designed peptide according to experiment) [P39] | negative | 
2 | FGSFGSITHTI (a designed peptide according to experiment) [P40] | negative | 
3 | FGSFVLITHTI (a designed peptide according to experiment) [P38] | negative | 
4 | FGSHVLITHTI (a designed peptide according to experiment) [P37] | negative | 
5 | FGTHVLITHTI (a designed peptide according to experiment) [P36] | 15 days | 
6 | FSTHVLITHTI (a designed peptide according to experiment) [P35] | 15 days | 
7 | GSFGFLITHTI (a designed peptide according to experiment) [P33] | negative | 
8 | GSFGSFITHTI (a designed peptide according to experiment) [P34] | negative | 
9 | GSFGVLITHTI (a designed peptide according to experiment) [P32] | negative | 
10 | GSFHVLITHTI (a designed peptide according to experiment) [P31] | negative | 
11 | GSTHVLITHTI (a designed peptide according to experiment) [P30] | 22 days | 
12 | HVLIT (a designed peptide according to experiment) [P2] | 17 days | 
13 | HVLITHTI (a designed peptide according to experiment) [P15] | negative | 
14 | ITHTI (a designed peptide according to experiment) [P7] | 17 days | 
15 | LITHT (a designed peptide according to experiment) [P4] | 17 days | 
16 | LITHTI (a designed peptide according to experiment) [P17] | 22 days | 
17 | PSTHVL (a designed peptide according to experiment) [P8] | 15 days | 
18 | PSTHVLGSFGS [P18] | 22 days | 
19 | PSTHVLI (a designed peptide according to experiment) [P9] | negative | 
20 | PSTHVLIFGSG [P24] | negative | 
21 | PSTHVLIGSFG (a designed peptide according to experiment) [P19] | negative | 

Row | Substance | Number x (hair regeneration observed at the x'th day) [1] | other results
22 | PSTHVLIT (a designed peptide according to experiment) [P10] | negative | 
23 | PSTHVLITGSF (a designed peptide according to experiment) [P20] | negative | 
24 | PSTHVLITGSG (a designed peptide according to experiment) [P25] | 22 days | 
25 | PSTHVLITH (a designed peptide according to experiment) [P11] | 19 days | 
26 | PSTHVLITHGS (a designed peptide according to experiment) [P21] | 23 days | 
27 | PSTHVLITHSG (a designed peptide according to experiment) [P26] | 22 days | 
28 | PSTHVLITHT (a designed peptide according to experiment) [P12] | 19 days | 
29 | PSTHVLITHTG (a designed peptide according to experiment) [P22] | 23 days | 
30 | PSTHVLITHTI (a designed peptide according to experiments) [P1] | 17 days | activation of Wnt3a in hair follicle stem cells [2]: obviously activated; activation of marker CK15 of hair follicle stem cells [3]: obviously activated; relative luciferase activity (activity of β-catenin) [4]: increase the activity of β-catenin; also recorded: enhance activity of β-catenin; relative luciferase activity (activity of β-catenin) [5]: increase the activity of β-catenin; also recorded: enhance activity of β-catenin; activation of β-catenin in hair follicle stem cells [6]: effect on activating or regenerating the hair follicle stem cells; also recorded: activated; gene expression of Wnt7b (RT-PCR) ([7]; FIG. 8, listed as SEQ ID No: 1): activate the gene expression; gene expression of Wnt7b (RT-PCR) ([7]; FIG. 8, listed as iPept-1): increases; gene expression of Wnt16 (RT-PCR) ([8]; FIG. 8, listed as SEQ ID No: 1): activate the gene expression; gene expression of Wnt16 (RT-PCR) ([8]; FIG. 8, listed as iPept-1): increases; gene expression of Wnt16 (QRT-PCR) ([8]; FIG. 9): enhances the gene expression
31 | PSTHVLITHTIS (a designed peptide according to experiment) [P29] | 22 days | 
32 | PSTHVLITHTISR (a designed peptide according to experiment) [P28] | negative | 
33 | PSTHVLITHTISRI (a designed peptide according to experiment) [P6] | 19 days | 
34 | PSTHVLITHTS (a designed peptide according to experiment) [P27] | negative | 
35 | PSTHVLLTHTI (a designed peptide according to experiments) [P41] | 19 days | 
36 | PSTHVLSFGSG (a designed peptide according to experiment) [P23] | negative | 
37 | STHVL (a designed peptide according to experiment) [P5] | 19 days | 
38 | STHVLITHTI (a designed peptide according to experiment) [P13] | negative | 
39 | THVLITHTI (a designed peptide according to experiment) [P14] | negative | 
40 | VLITH (a designed peptide according to experiment) [P3] | 17 days | 
41 | VLITHTI (a designed peptide according to experiment) [P16] | negative | 
